Source: patent US11072628B2, “Nucleoside analogues for the treatment of parasitic infections” (UNIVERSITEIT GENT, priority 2017, dated 2021)
pEC50: −log10 of the molar value. Entries after “also recorded” stand apart in the source; their conditions may differ. Where two headings read alike, the source gives them in different places.

How the values were obtained:
T. brucei Squib 427 = test: In vitro drug susceptibility, T. brucei Squib 427 (resazurin); format: cell-based, Trypanosoma brucei brucei; conditions: for pEC50: Trypanosoma brucei
Method: (§1) All trypanosome strains were cultured in the standard HMI-9 medium supplemented with 10% fetal bovine serum (FBS) at 37° C. in a 5% CO2 atmosphere.

[1] = tested on: T. cruzi Tulahuen CL2 β galactosidase strain; test: T. cruzi Tulahuen CL2 β galactosidase strain on MRC-5SV2 cells (CPRG); format: cell-based, Trypanosoma cruzi; conditions: Trypanosoma cruzi, TULAHUEN, MRC-5 SV2
Method: All cultures and assays were conducted at 37° C./5% CO2. […] The results were expressed as % reduction in parasite burdens compared to control wells from which an EC50 was calculated.

[2] = tested on: T. b. rhodesiense STIB-900; test: In vitro drug susceptibility, T. b. rhodesiense STIB-900 (resazurin); format: cell-based, Trypanosoma brucei rhodesiense; conditions: Trypanosoma brucei, RHODESIENSE, read-out: T. brucei rhod. EC50
Method: as §1

T. cruzi (Y-strain) = test: In vivo antiparasitic activity in mice (T. cruzi Y-strain); parameters: species or system Trypanosoma cruzi; conditions: 25 mg/kg PO b.i.d. for five days starting at 5 dpi
Method: The animals were allowed to acclimate for 7 days before starting the experiments. […] Age-matched non-infected mice were maintained under identical conditions. The animals were divided into the following groups (n=6): uninfected (non-infected and non-treated), untreated (infected but treated only with vehicle), and treated (infected and treated with the compounds). […] Formulations were prepared freshly before each administration. Only mice with positive parasitemia were used in the infected groups. Parasitemia was individually checked by direct microscopic counting of the number of parasites in 5 μl of blood (Panel A—FIG. 5), and mice were checked for mortality daily until 30 days post-treatment (corresponding to 40 dpi). Mortality is expressed as the percent cumulative mortality (CM; Panel B—FIG. 5).

[3] = tested on: T. vaginalis trophozoites (metronidazole susceptible G3 strain); test: Trichomonas vaginalis in vitro assay; format: cell-based; conditions: Trichomonas vaginalis, average of 2-5 independent replicates
Method: T. vaginalis trophozoites (metronidazole susceptible G3 strain) were grown in vitro in modified Diamond's media (MDM) with 10% heat inactivated horse serum (HIHS) acquired from Gibco Life Technologies. After medium preparation, the pH was adjusted to 6.3-6.4 employing 1.0 M aq. HCl. Parasites cultures were passaged every day by taking 1 mL of cell culture into a 25 mL bottle of fresh media to ensure the cells were kept at the appropriate concentration of ˜2×10^6 cells/mL. The culture flasks were filled completely and tightly capped to provide the cells with an anaerobic environment. The parasites were maintained in incubation at 37° C. When culturing in multiwell plates, the plates were sealed with Nescofilm® and inserted in BD GasPak EZ pouches (BD Diagnostics, UK) in order to create anaerobic conditions. Assays were performed with 5×10^4 trophozoites/well (100 μL) to which compound dilutions were added (100 μL). Outside wells of columns and rows were filled with 200 μL of sterile water. Plates were sealed with Nescofilm® and incubated under anaerobic conditions as described above. After 24 h, 30 μL of assay dye solution (resorufin) was added, and incubated for 1-2 h before being read using Fluostar Optima (BMG Labtech, UK) at an excitation wavelength of 544 nm and an emission wavelength of 620 nm.

[4] = Cytotoxicity against MRC-5 fibroblasts; conditions: human, MRC-5 fibroblasts, cytotoxicity
Method: Cytotoxicity was assayed against MRC-5 fibroblasts. Results are depicted in Tables 4 and 5.

T. b. brucei Squib 427 [5] = test: In vivo antiparasitic activity in mice (T. brucei; acute model); parameters: species or system Trypanosoma brucei brucei
Method: The test compound of the invention was formulated in 10% (V/V) PEG400 in water at 2 mg/mL and was freshly prepared at every administration. The test compound was administered orally (PO) b.i.d. for 5 days at 25 mg/kg. The reference drug suramin was formulated in PBS at 2.5 mg/mL and administered s.i.d. IP for 5 days at 10 mg/kg. Treatment was initiated ½ hour prior to the IP infection.

T. brucei AnTAR1 PPYRE9 = test: In vivo antiparasitic activity in mice (T. brucei; stage-II disease model); parameters: species or system Trypanosoma brucei; conditions: treatment from 21 dpi for 5 days; 25 mg/kg PO b.i.d. or 25, 12.5 or 6.25 mg/kg s.i.d.
Method: The test compound, FH7429_D was formulated in 5% (V/V) Tween80 at 4 mg/mL and administered according to body weight (25 mg/kg bid., oral gavage) for 5 days. Treatment commenced at 21 dpi, in mice which had positive CNS involvement (BLI). Two reference groups: vehicle control as well as melarsoprol (120 mg/kg, s.i.d. topical for 3 days) were included. Topical melarsoprol formulation was prepared as following: 3.6% melarsprol in propylene glycol was used to prepare a 1.5% hydroxypropylcellulose (HPC) gel.
Parasitemia analysis was performed by microscopic evaluation of tail vein blood samples at 21 (before treatment initiation), 25, 28, 32 and 35 dpi. Bioluminescent imaging (BLI) was performed at 7, 14, 21, 28, 35, 43, 50 and 53 dpi. BLI experiments were performed as following: D-luciferin (15 mg/kg) was injected intraperitoneally, and mice were subsequently anaesthetized using isoflurane. The luminescent signal was measured over a 5 second as well as 5-minute exposure time, both for the ventral as well as the dorsal side of the animals.

T. b. brucei Squib 427 [6] = conditions: comparison statement, not tested here; cited from earlier work
[7] = read-out: T. brucei brucei EC50, Table 1, average of 2-4 independent determinations
[8] = Table 2, average of 2-3 independent replicates

Work on Nc1ncnc2c1c(-c1ccc(Cl)cc1)cn2[C@@H]1O[C@H](CO)C[C@H]1O [FH8512, 4-amino-5-(4-chlorophenyl)-N7-(3′-deoxy-β-D-ribofuranosyl)-pyrrolo[2,3-d]pyrimidine] yielded a pEC50 (T. brucei Squib 427; [7]) of 5.64, a pEC50 [1, 8] of 7.30 and a pEC50 [2] of 5.74. The blood parasitemia (T. cruzi (Y-strain)) was “suppress blood parasitemia”, the “mortality caused by the infection” value (T. cruzi (Y-strain)) was “protect animals from mortality” and the pEC50 ([3]; Table 3) was 6.77. For the same molecule, the pEC50 ([4]; MRC-5 EC50, Table 1) was 4.72 and the pEC50 ([4]; MRC-5 EC50, Table 2) was 4.72.

In the case of Nc1ncnc2c1ccn2[C@@H]1O[C@H](CO)C[C@H]1O [FH7429_D, 4-amino-N7-(3′-deoxy-β-D-ribofuranosyl)-pyrrolo[2,3-d]pyrimidine], the pEC50 (T. brucei Squib 427; [7]) was 7.30, the pEC50 [1, 8] was under 4.19 and the pEC50 [2] was 9.30. For the same molecule, the “parasitological cure (sub-inoculation in naive mice)” value (T. b. brucei Squib 427 [5]; animals surviving until day 21 post infection) was “total parasitological cure; also recorded: able cure an acute infection”, the “clinical symptoms of trypanosomiasis / parasitemia” value (T. b. brucei Squib 427 [5]; infected mice, 5 consecutive days, test compound 25 mg/kg PO b.i.d. (FH7429_D also 10 mg/kg s.i.d. IP), suramin 10 mg/kg) was “no clinical symptoms of trypanosomiasis were observed” and the adverse drug effects (T. b. brucei Squib 427 [5]; mice, 5 days treatment) was “No signs of adverse drug effects were observed”. The “cure in stage-II HAT model” value (T. brucei AnTAR1 PPYRE9) was “considered cured”, the “parasitemia (BLI or tail vein blood analysis)” value (T. brucei AnTAR1 PPYRE9) was “did not show any signs of parasitemia from 28 dpi onwards” and the pEC50 ([4]; MRC-5 EC50, Table 1) was under 4.19. The pEC50 ([4]; MRC-5 EC50, Table 2) was under 4.19.

For Nc1ncnc2c1ncn2[C@@H]1O[C@H](CO)C[C@H]1O [cordycepin, 3′-deoxy-adenosine], the “clearance of T. brucei infection as a monotherapy” value (T. b. brucei Squib 427 [6]) is listed as “unable to clear the infection”.

With Nc1ncnc2c1c(-c1ccc(Cl)cc1)cn2[C@@H]1O[C@H](CO)[C@@H](O)[C@H]1O [TH1012, 4-amino-5-(4-chlorophenyl)-N7-(β-D-ribofuranosyl)-pyrrolo[2,3-d]pyrimidine] the “anti-trypanosomal activity against T. brucei, in words” value (T. brucei Squib 427) was “low μM EC50”, the pEC50 (T. brucei Squib 427; read-out: T.b. brucei EC50, Table 4, average of 2-6 independent determinations) was 5.12 and the pEC50 ([1]; Table 5, average of 2-4 independent replicates) was 6.33. The blood parasitemia (T. cruzi (Y-strain)) was “full suppression of parasitemia”, the “mortality caused by the infection” value (T. cruzi (Y-strain)) was “protected animals from mortality” and the pEC50 ([3]; Table 6) was 7.52. It also gave a pEC50 ([4]; MRC-5 EC50, Table 4) of 4.57 and a pEC50 ([4]; MRC-5 EC50, Table 5) of 4.57.
